IC50 data for 28 molecules are collected here from patent US20260124222A1, “ISOTHIAZOLYLCARBOXAMIDE COMPOUNDS AND THEIR USE IN THERAPY” (HOTSPOT THERAPEUTICS, INC., priority 2022, published 2026).

For the test, the target named is T1, Avi-tagged FL MALT-1 (Homo sapiens, UniProt Q9UDY8).
T1 construct: Avi-tagged FL MALT-1 (Pharmaron, stored at −70° C.); Avi-tag; purchased Pharmaron
T1 sequence (Q9UDY8 1-824): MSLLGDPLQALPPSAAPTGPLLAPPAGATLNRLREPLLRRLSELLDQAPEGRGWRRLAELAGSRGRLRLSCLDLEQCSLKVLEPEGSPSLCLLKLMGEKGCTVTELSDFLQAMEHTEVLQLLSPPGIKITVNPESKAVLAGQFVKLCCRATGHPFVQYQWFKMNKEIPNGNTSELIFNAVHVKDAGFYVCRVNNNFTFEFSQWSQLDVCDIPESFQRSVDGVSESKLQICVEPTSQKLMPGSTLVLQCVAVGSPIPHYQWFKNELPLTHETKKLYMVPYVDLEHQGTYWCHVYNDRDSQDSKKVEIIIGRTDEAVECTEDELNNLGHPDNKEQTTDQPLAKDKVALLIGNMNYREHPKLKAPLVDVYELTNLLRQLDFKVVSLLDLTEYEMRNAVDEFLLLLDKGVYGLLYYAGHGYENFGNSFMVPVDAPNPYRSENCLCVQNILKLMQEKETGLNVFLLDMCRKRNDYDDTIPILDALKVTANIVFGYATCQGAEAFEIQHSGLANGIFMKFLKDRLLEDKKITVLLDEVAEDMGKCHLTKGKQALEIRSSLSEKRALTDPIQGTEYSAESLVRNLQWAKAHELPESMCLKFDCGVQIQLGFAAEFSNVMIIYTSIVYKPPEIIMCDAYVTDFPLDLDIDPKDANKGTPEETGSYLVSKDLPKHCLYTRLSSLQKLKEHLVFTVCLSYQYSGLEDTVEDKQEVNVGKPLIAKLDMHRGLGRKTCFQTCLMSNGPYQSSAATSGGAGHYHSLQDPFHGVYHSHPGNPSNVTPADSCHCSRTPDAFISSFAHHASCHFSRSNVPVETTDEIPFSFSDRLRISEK
The test can be described thus: MALT-1 Fluorogenic Peptide Cleavage Assay (MALT1 inhibition assay). As to conditions: Ac-LRSR-AMC peptide substrate; 30 min pre-incubation, 90 min reaction at room temperature; fluorescence. It counts as biochemical. A digest of the protocol:
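Full-length Avi-tagged enzyme preincubated 30 min at room temperature with compound (2% DMSO final) in HEPES pH 6.89 buffer with sodium citrate, TCEP, EDTA and CHAPS. Ac-LRSR-AMC substrate added at Km or 10×Km (working stocks 50 or […] μM); fluorescence (ex 342/em 441 nm) after 90 min; IC50 from sigmoidal fit.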

The term IC50 denotes the concentration at which inhibition is half-maximal. Higher therefore signals weaker potency in that assay. In the case of `Cn1ncc2cccc(-c3nsc(C(=O)Nc4cnc(-n5nccn5)c(C#N)c4)c3C3CC3)c21` [I-101], the IC50 is ≤ 400 nM.
As to `CN(C)c1nsc(C(=O)Nc2cnc(-n3nccn3)c(C#N)c2)c1C(F)(F)F` [I-102], the half-maximal inhibitory concentration (IC50) is ≤ 400 nM.
For `O=C(Nc1ccnc(C(F)(F)F)c1)c1snc(-c2cccc3ncsc23)c1C1CC1` [I-103], the IC50 is ≤ 400 nM.
For `Cc1cc(NC(=O)c2snc(-c3cccc4ncsc34)c2C2CC2)ccn1` [I-104], the half-maximal inhibitory concentration (IC50) is ≤ 400 nM.
Take `COc1ccc2c(-c3nsc(C(=O)Nc4cnc(-n5nccn5)c(Cl)c4)c3C(F)(F)F)cccc2n1` [I-105]: the half-inhibitory concentration (IC50) was ≤ 400 nM.
Take `COc1nccc2c(-c3nsc(C(=O)Nc4cnc(-n5nccn5)c(Cl)c4)c3C(F)(F)F)cccc12` [I-106]: the half-inhibitory concentration (IC50) is ≤ 400 nM.
Turning to `O=C(Nc1cnc(-n2nccn2)c(Cl)c1)c1snc(-c2cccc3c(=O)[nH]ccc23)c1C(F)(F)F` [I-107], the concentration for half-maximal inhibition (IC50) is ≤ 400 nM.
As for `Cn1cccc(-c2nsc(C(=O)Nc3cnc(-n4nccn4)c(C#N)c3)c2C(F)(F)F)c1=O` [I-108], the IC50 was in the range of 1000 to 2500 nM.
Regarding `N#Cc1cc(NC(=O)c2snc(-c3cccc4ncoc34)c2C2CC2)cnc1-n1nccn1` [I-109], the half-maximal inhibitory concentration (IC50) is ≤ 400 nM.
For `N#Cc1cc(NC(=O)c2snc(C3CCOC3)c2C2CC2)cnc1-n1nccn1` (stereo not shown) [I-110] the value was 400 to 1000 nM; for `CN1Cc2cc(NC(=O)c3snc(-c4ccccc4)c3C3CC3)cnc2C1=O` [I-111], > 2500 nM.
`Cc1cccnc1-c1nsc(C(=O)Nc2cnc(-n3nccn3)c(C#N)c2)c1C1CC1` [I-112]: the half-maximal inhibitory concentration (IC50) is ≤ 400 nM.
For the molecule `Cc1cc(NC(=O)c2snc(-c3cccc4ncoc34)c2C2CC2)cnc1-n1nccn1` [I-113], the IC50 is ≤ 400 nM.
Regarding `N#Cc1cc(NC(=O)c2snc(-c3cccn4nccc34)c2C2CC2)cnc1-n1nccn1` [I-114], the IC50 is ≤ 400 nM.
Consider `N#Cc1cc(NC(=O)c2snc(C3CCOC3)c2C2CC2)cnc1-n1nccn1` (stereo not shown) [I-115], for which the IC50 is ≤ 400 nM.
Consider `Cc1cn(C)nc1-c1nsc(C(=O)Nc2cnc(-n3nccn3)c(C#N)c2)c1C1CC1` [I-116], for which the concentration for half-maximal inhibition (IC50) is ≤ 400 nM.
Consider `O=C(Nc1cnc(C(=O)N2CC(O)C2)c(Cl)c1)c1snc(-c2cccc3ncsc23)c1C1CC1` [I-117], for which the half-inhibitory concentration (IC50) was ≤ 400 nM.
Regarding `O=C(Nc1cnc(-n2nccn2)c(Cl)c1)c1snc(-c2cccc3ncccc23)c1C1CC1` [I-118], the IC50 was ≤ 400 nM.
Consider `O=C(Nc1cncc(C(F)(F)F)c1)c1snc(-c2cccc3ncccc23)c1C1CC1` [I-119], for which the IC50 is ≤ 400 nM.
Regarding `Cn1nnc2cccc(-c3nsc(C(=O)Nc4cnc(-n5nccn5)c(C#N)c4)c3C3CC3)c21` [I-120], the IC50 was ≤ 400 nM.
For `CC(=O)N1CCC(c2nsc(C(=O)Nc3cnc(-n4nccn4)c(C#N)c3)c2C2CC2)CC1` [I-121] the value was 1000 to 2500 nM; for `CN1CCC(c2nsc(C(=O)Nc3cnc(-n4nccn4)c(C#N)c3)c2C2CC2)CC1` [I-122], > 2500 nM; for `N#Cc1cc(NC(=O)c2snc(-c3cccc4ncccc34)c2C2CC2)cnc1-n1nccn1` [I-123], ≤ 400 nM.
The molecule `CC(C)c1nsc(C(=O)Nc2ccnc(C(F)(F)F)c2)c1C1CC1` [I-124] registered a half-maximal inhibitory concentration (IC50) of 1000 to 2500 nM.
`CN(C)c1nsc(C(=O)Nc2ccnc(C(F)(F)F)c2)c1C1CC1` [I-125]: the IC50 was > 2500 nM.
As to `Cn1nc2cccc(-c3nsc(C(=O)Nc4cnc(-n5nccn5)c(C#N)c4)c3C3CC3)c2n1` [I-126], the IC50 was ≤ 400 nM.
On to `Cn1nnc2c(-c3nsc(C(=O)Nc4cnc(-n5nccn5)c(C#N)c4)c3C3CC3)cccc21` [I-127], for which the IC50 is ≤ 400 nM.
Take `Cn1ccc(-c2nsc(C(=O)Nc3cnc(-n4nccn4)c(C#N)c3)c2C(F)(F)F)cc1=O` [I-128, N-(5-cyano-6-(2H-1,2,3-triazol-2-yl)pyridin-3-yl)-3-(1-methyl-2-oxo-1,2-dihydropyridin-4-yl)-4-(trifluoromethyl)isothiazole-5-carboxamide]: the half-maximal inhibitory concentration (IC50) is > 2500 nM.
